Measurements reported in publication PMC7501296, “Rapid and direct control of target protein levels with VHL-recruiting dTAG molecules” (Nature Communications, 2020).
Values joined by “and” are separate entries in the source; they are usually repeats but may differ in a detail not shown here. Identical values can stand only once.

Legend:
Type in all cases: cell-based
[1] = target: T1, FKBP12^WT-Nluc (Homo sapiens, UniProt P62942); assay: FKBP12WT-Nluc dual luciferase assay (293FT); conditions: 293FT FKBP12WT-Nluc, 24 h
T1 construct: expressed in transfected cells; host or cells: 293FT
Experimental: (§1) Dual luciferase assays were performed using 293FT FKBP12^WT-Nluc and FKBP12^F36V-Nluc cells. In brief, cells were plated at 2000 cells per well in 20 µL of appropriate media in 384-well white culture plates (Corning), allowed to adhere overnight, and 100 nL of compounds were added using a Janus Workstation pin tool (PerkinElmer) for 24 h at 37 °C. To evaluate Fluc signal, plates were brought to room temperature, 20 µL of Dual-Glo Reagent (Promega) was added for 10 min and luminescence was measured on an Envision 2104 plate reader (PerkinElmer). Subsequently, 20 µL of Dual-Glo Stop & Glo Reagent (Promega) was added for 10 min and luminescence was again measured to capture Nluc signal. DMSO-normalized ratios of Nluc/Fluc signal was analyzed and plotted using GraphPad PRISM v8[6].

[2] = system: PATU-8902 FKBP12^F36V-KRAS^G12V; KRAS^-/- clone; assay: Antiproliferation, PATU-8902 FKBP12F36V-KRASG12V; KRAS-/- clone, 2D-monolayer (CellTiter-Glo)
Experimental: (§2) Cell viability was assayed in 2D-adherent or ultra-low adherent 3D-spheroids using CellTiter-Glo (Promega)[6],[15]. Luminescence was measured on an Envision 2104 plate reader (PerkinElmer) and Fluostar Omega Reader (BMG Labtech) and data was analyzed using GraphPad PRISM v8. Synergy assessments were performed using CellTiter-Glo (Promega) with the following modifications to the protocol described in the ref. [34]. In brief, EWS502 cells were plated at 1000 cells per well in 50 µL of appropriate media in 384-well white culture plates (Corning) allowed to adhere overnight, and 100 nL of compounds were added using a Janus Workstation pin tool (PerkinElmer) for 72 h. Cell viability was measured by addition of 10 µL of CellTiter-glo (Promega), followed by incubation for 15 minutes at room temperature. Luminescence was measured on an Envision 2104 plate reader (PerkinElmer) and data was analyzed using GraphPad PRISM v8.

[3] = system: PATU-8902 LACZ-FKBP12^F36V clone; assay: Antiproliferation, PATU-8902 LACZ-FKBP12F36V clone, 2D-monolayer (CellTiter-Glo)
Experimental: as §2

[4] = system: PATU-8902 LACZ-FKBP12^F36V clone; assay: Antiproliferation, PATU-8902 LACZ-FKBP12F36V clone, 3D-spheroid (CellTiter-Glo)
Experimental: as §2

[5] = system: PATU-8902 FKBP12^F36V-KRAS^G12V; KRAS^-/- clone; assay: Antiproliferation, PATU-8902 FKBP12F36V-KRASG12V; KRAS-/- clone, 3D-spheroid (CellTiter-Glo); conditions: FKBP12F36V-KRASG12V, KRAS-/-, 3D-spheroid, replicate values
Experimental: as §2

[6] = target: T2, FKBP12^F36V-Nluc (Homo sapiens, UniProt P62942, F37V); assay: FKBP12F36V-Nluc dual luciferase assay (293FT); conditions: 293FT FKBP12F36V-Nluc, 24 h
T2 construct: expressed in transfected cells; host or cells: 293FT
Experimental: as §1

[7] = log10[compound] (M) -5.30103, single replicates
[8] = log10[compound] (M) -5.80103, single replicates
[9] = log10[compound] (M) -6.30103, single replicates
[10] = log10[compound] (M) -6.80103, single replicates
[11] = log10[compound] (M) -7.30103, single replicates
[12] = log10[compound] (M) -7.80103, single replicates
[13] = log10[compound] (M) -8.30103, single replicates
[14] = log10[compound] (M) -8.80103, single replicates
[15] = log10[compound] (M) -9.30103, single replicates
[16] = log10[compound] (M) -9.80103, single replicates
[17] = log10[compound] (M) -5.69897, replicate values
[18] = log10[compound] (M) -6.19897, replicate values
[19] = log10[compound] (M) -6.69897, replicate values
[20] = log10[compound] (M) -7.19897, replicate values
[21] = log10[compound] (M) -7.69897, replicate values
[22] = log10[compound] (M) -8.19897, replicate values
[23] = log10[compound] (M) -8.69897, replicate values
[24] = log10[compound] (M) -9.19897, replicate values
[25] = log10[compound] (M) -9.69897, replicate values
[26] = log10[compound] (M) -10.199, replicate values

T1 sequence (P62942 2-108 limits assumed): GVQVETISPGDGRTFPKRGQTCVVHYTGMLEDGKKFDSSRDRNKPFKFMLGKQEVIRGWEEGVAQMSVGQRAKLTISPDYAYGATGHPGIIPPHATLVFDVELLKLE
T2 sequence (P62942 2-108 F37V limits assumed): as the sequence (P62942 2-108 limits assumed) above, with F36V counted along it

For `CC[C@H](C(=O)N1CCCC[C@H]1C(=O)O[C@H](CCc1ccc(OC)c(OC)c1)c1ccccc1OCC(=O)NCCCCCCCCNc1ccc2c(c1)C(=O)N(C1CCC(=O)NC1=O)C2=O)c1cc(OC)c(OC)c(OC)c1` (stereo partly drawn) [dTAG-47], the “DMSO-normalized ratio of Nluc/Fluc signal” value [1, 7] was 84.1355 and 61.3325 and 70.7772 and 69.8836, the “DMSO-normalized ratio of Nluc/Fluc signal” value [1, 8] was 93.0264 and 83.3041 and 88.6237 and 105.071 and the “DMSO-normalized ratio of Nluc/Fluc signal” value [1, 9] was 94.1663 and 90.3102 and 81.5579 and 90.5666. The “DMSO-normalized ratio of Nluc/Fluc signal” value [1, 10] was 110.721 and 121.213 and 82.3107 and 91.0391, the “DMSO-normalized ratio of Nluc/Fluc signal” value [1, 11] was 107.713 and 93.6392 and 128.788 and 92.5578 and the “DMSO-normalized ratio of Nluc/Fluc signal” value [1, 12] was 103.034 and 105.226 and 82.6165 and 80.9641. For the same compound, the “DMSO-normalized ratio of Nluc/Fluc signal” value [1, 13] was 109.495 and 103.137 and 100.817 and 113.935, the “DMSO-normalized ratio of Nluc/Fluc signal” value [1, 14] was 108.489 and 81.746 and 104.598 and 105.548 and the “DMSO-normalized ratio of Nluc/Fluc signal” value [1, 15] was 150.295 and 133.521 and 111.306 and 119.516. For the same compound, the “DMSO-normalized ratio of Nluc/Fluc signal” value [1, 16] was 91.0985 and 100.837 and 94.8437 and 78.0176, the DMSO-normalized antiproliferation [2, 17] was 6.913 and 6.748 and 7.162 and 6.575 and the DMSO-normalized antiproliferation [2, 18] was 6.887 and 6.816 and 9.161 and 7.924. The DMSO-normalized antiproliferation [2, 19] was 8.541 and 7.72 and 7.186 and 7.798, the DMSO-normalized antiproliferation [2, 20] was 7.406 and 10.8399 and 10.8629 and 7.675 and the DMSO-normalized antiproliferation [2, 21] was 12.7188 and 13.025 and 10.8965 and 13.2658. For the same compound, the DMSO-normalized antiproliferation [2, 22] was 32.6374 and 45.5784 and 27.329 and 36.3182, the DMSO-normalized antiproliferation [2, 23] was 78.991 and 62.9303 and 95.6226 and 83.1029 and the DMSO-normalized antiproliferation [2, 24] was 131.499 and 101.289 and 106.245 and 113.716. The DMSO-normalized antiproliferation [2, 25] was 70.9753 and 109.585 and 109.74 and 110.516, the DMSO-normalized antiproliferation [2, 26] was 108.82 and 120.301 and 99.0114 and 87.8166 and the DMSO-normalized antiproliferation [3, 17] was 66.3552 and 78.983 and 129.177 and 83.2821. The DMSO-normalized antiproliferation [3, 18] was 96.6043 and 136.336 and 78.4431 and 113.952, the DMSO-normalized antiproliferation [3, 19] was 106.502 and 122.166 and 122.162 and 152.939 and the DMSO-normalized antiproliferation [3, 20] was 97.4699 and 137.606 and 129.786 and 96.3913. The DMSO-normalized antiproliferation [3, 21] was 105.363 and 127.754 and 134.499 and 162.317, the DMSO-normalized antiproliferation [3, 22] was 108.061 and 166.691 and 180.246 and 124.553 and the DMSO-normalized antiproliferation [3, 23] was 122.542 and 158.966 and 101.253 and 156.902. For the same compound, the DMSO-normalized antiproliferation [3, 24] was 124.955 and 178.332 and 114.428 and 108.403, the DMSO-normalized antiproliferation [3, 25] was 90.3511 and 110.898 and 123.983 and 115.732 and the DMSO-normalized antiproliferation [3, 26] was 132.189 and 174.913 and 122.829 and 145.695. The DMSO-normalized antiproliferation [4, 17] was 89.4983 and 102.295 and 92.5832 and 113.039, the DMSO-normalized antiproliferation [4, 18] was 114.787 and 91.3098 and 99.5825 and 107.277 and the DMSO-normalized antiproliferation [4, 19] was 113.465 and 134.808 and 116.567 and 121.226. For the same compound, the DMSO-normalized antiproliferation [4, 20] was 129.284 and 117.496 and 141.381 and 115.953, the DMSO-normalized antiproliferation [4, 21] was 103.38 and 130.979 and 121.849 and 101.748 and the DMSO-normalized antiproliferation [4, 22] was 127.652 and 127.302 and 105.649 and 114.859. For the same compound, the DMSO-normalized antiproliferation [4, 23] was 124.033 and 144.628 and 127.266 and 105.313, the DMSO-normalized antiproliferation [4, 24] was 110.895 and 108.017 and 114.025 and 143 and the DMSO-normalized antiproliferation [4, 25] was 107.098 and 111.016 and 108.066 and 105.932. For the same compound, the DMSO-normalized antiproliferation [4, 26] was 102.188 and 109.313 and 104.448 and 106.317, the DMSO-normalized antiproliferation ([5]; log10[compound] (M) -5.69897) was 10.0402 and 10.6917 and 15.8593 and 10.4467 and the DMSO-normalized antiproliferation ([5]; log10[compound] (M) -6.19897) was 11.3488 and 8.236 and 4.984 and 9.032. The DMSO-normalized antiproliferation ([5]; log10[compound] (M) -6.69897) was 14.7066 and 10.4355 and 16.0487 and 8.1023, the DMSO-normalized antiproliferation ([5]; log10[compound] (M) -7.19897) was 11.6773 and 15.954 and 8.269 and 8.1914 and the DMSO-normalized antiproliferation ([5]; log10[compound] (M) -7.69897) was 15.915 and 11.6328 and 15.6143 and 14.7735. For the same compound, the DMSO-normalized antiproliferation ([5]; log10[compound] (M) -8.19897) was 17.2515 and 18.6047 and 14.0328 and 13.4092, the DMSO-normalized antiproliferation ([5]; log10[compound] (M) -8.69897) was 38.6293 and 28.3831 and 27.3251 and 20.0636 and the DMSO-normalized antiproliferation ([5]; log10[compound] (M) -9.19897) was 80.9673 and 68.7721 and 60.1519 and 83.6347. The DMSO-normalized antiproliferation ([5]; log10[compound] (M) -9.69897) was 92.188 and 73.717 and 97.9125 and 91.7258, the DMSO-normalized antiproliferation ([5]; log10[compound] (M) -10.199) was 111.244 and 86.8032 and 100.63 and 85.0157 and the “DMSO-normalized ratio of Nluc/Fluc signal” value [6, 7] was 9.718 and 7.82 and 6.838 and 6.452. The “DMSO-normalized ratio of Nluc/Fluc signal” value [6, 8] was 7.4356 and 7.1545 and 9.246 and 9.013, the “DMSO-normalized ratio of Nluc/Fluc signal” value [6, 9] was 8.136 and 6.155 and 6.261 and 6.581 and the “DMSO-normalized ratio of Nluc/Fluc signal” value [6, 10] was 5.707 and 7.548 and 7.612 and 6.01. The “DMSO-normalized ratio of Nluc/Fluc signal” value [6, 11] was 6.03 and 9.875 and 9.62 and 12.7928, the “DMSO-normalized ratio of Nluc/Fluc signal” value [6, 12] was 18.7955 and 27.4949 and 18.2618 and 15.8294 and the “DMSO-normalized ratio of Nluc/Fluc signal” value [6, 13] was 42.6816 and 38.7415 and 32.3273 and 32.9688. For the same compound, the “DMSO-normalized ratio of Nluc/Fluc signal” value [6, 14] was 36.5732 and 37.1776 and 61.6483 and 62.7104, the “DMSO-normalized ratio of Nluc/Fluc signal” value [6, 15] was 80.6958 and 88.3567 and 73.7011 and 76.297 and the “DMSO-normalized ratio of Nluc/Fluc signal” value [6, 16] was 75.9613 and 95.4034 and 80.0547 and 73.0727.
